Experimental data published in the supplement of paper PMC10307832.

What was measured:
Experiment in all cases: relative viability (nuclei count vs DMSO), 5 days (fraction); higher = more cells survive
[1] = system: NCI-H322M
In short: (§1)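 Lung cancer cell lines were pin-tool dosed in 1536-well plates on the day after seeding, with either a lone drug or a fixed anchor-drug dose plus five library-drug doses (not always all listed) in √10 steps. Nuclei were counted on 4× images after 5 days. Relative viability is the ratio of treated-well to vehicle-well nuclei counts, with each value a median of duplicate plates.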

[2] = system: NCI-H1793
In short: as §1

[3] = system: EPLC-272H
In short: as §1

[4] = system: 201T
In short: as §1

[5] = system: NCI-H1734
In short: as §1

[6] = system: NCI-H441
In short: as §1

[7] = system: NCI-H2405
In short: as §1

[8] = system: NCI-H3122
In short: as §1

[9] = system: PC-14
In short: as §1

[10] = system: HCC-15
In short: as §1

[11] = system: NCI-H2170
In short: as §1

[12] = system: NCI-H2347
In short: as §1

[13] = system: NCI-H647
In short: as §1

[14] = system: SW 900
In short: as §1

[15] = system: H3255
In short: as §1

[16] = system: LOU-NH91
In short: as §1

[17] = system: UMC-11
In short: as §1

[18] = system: NCI-H2023
In short: as §1

[19] = system: COR-L23
In short: as §1

[20] = system: NCI-H1650
In short: as §1

[21] = system: NCI-H520
In short: as §1

Question: What does the source list for `Nc1ccn([C@@H]2O[C@H](CO)[C@@H](O)[C@@H]2O)c(=O)n1` [Cytarabine] + NC(=O)Nc1cc(-c2cccc(F)c2)sc1C(=O)N[C@H]1CCCNC1 [AZD7762] (partner 0.2 µM)?
Answer: relative viability ([1]; first compound 0.005 µM): 0.405; relative viability ([1]; first compound 0.01581 µM): 0.494; relative viability ([1]; first compound 0.05 µM): 0.405; relative viability ([1]; first compound 0.1581 µM): 0.371; relative viability ([1]; first compound 0.5 µM): 0.385; relative viability ([2]; first compound 0.005 µM): 0.304; relative viability ([2]; first compound 0.01581 µM): 0.417; relative viability ([2]; first compound 0.05 µM): 0.341; relative viability ([2]; first compound 0.1581 µM): 0.149; relative viability ([2]; first compound 0.5 µM): 0.111; relative viability ([3]; first compound 0.005 µM): 0.335; relative viability ([3]; first compound 0.01581 µM): 0.273; relative viability ([3]; first compound 0.05 µM): 0.117; relative viability ([3]; first compound 0.1581 µM): 0.0659; relative viability ([3]; first compound 0.5 µM): 0.0636; relative viability ([4]; first compound 0.005 µM): 0.635; relative viability ([4]; first compound 0.01581 µM): 0.596; relative viability ([4]; first compound 0.05 µM): 0.653; relative viability ([4]; first compound 0.1581 µM): 0.342; relative viability ([4]; first compound 0.5 µM): 0.265; relative viability ([5]; first compound 0.005 µM): 0.258; relative viability ([5]; first compound 0.01581 µM): 0.172; relative viability ([5]; first compound 0.05 µM): 0.159; relative viability ([5]; first compound 0.1581 µM): 0.0997; relative viability ([5]; first compound 0.5 µM): 0.102; relative viability ([6]; first compound 0.005 µM): 0.982; relative viability ([6]; first compound 0.01581 µM): 0.912; relative viability ([6]; first compound 0.05 µM): 0.814; relative viability ([6]; first compound 0.1581 µM): 0.306; relative viability ([6]; first compound 0.5 µM): 0.211; relative viability ([7]; first compound 0.005 µM): 0.612; relative viability ([7]; first compound 0.01581 µM): 0.454; relative viability ([7]; first compound 0.05 µM): 0.445; relative viability ([7]; first compound 0.1581 µM): 0.249; relative viability ([7]; first compound 0.5 µM): 0.217; relative viability ([8]; first compound 0.005 µM): 0.943; relative viability ([8]; first compound 0.01581 µM): 0.585; relative viability ([8]; first compound 0.05 µM): 0.397; relative viability ([8]; first compound 0.1581 µM): 0.184; relative viability ([8]; first compound 0.5 µM): 0.138; relative viability ([9]; first compound 0.005 µM): 0.346; relative viability ([9]; first compound 0.01581 µM): 0.234; relative viability ([9]; first compound 0.05 µM): 0.136; relative viability ([9]; first compound 0.1581 µM): 0.0783; relative viability ([9]; first compound 0.5 µM): 0.0484; relative viability ([10]; first compound 0.005 µM): 1.11; relative viability ([10]; first compound 0.01581 µM): 1.52; relative viability ([10]; first compound 0.05 µM): 1.45; relative viability ([10]; first compound 0.1581 µM): 1.06; relative viability ([10]; first compound 0.5 µM): 0.913; relative viability ([11]; first compound 0.005 µM): 0.666; relative viability ([11]; first compound 0.01581 µM): 0.515; relative viability ([11]; first compound 0.05 µM): 0.347; relative viability ([11]; first compound 0.1581 µM): 0.173; relative viability ([11]; first compound 0.5 µM): 0.136; relative viability ([12]; first compound 0.005 µM): 0.721; relative viability ([12]; first compound 0.01581 µM): 0.525; relative viability ([12]; first compound 0.05 µM): 0.47; relative viability ([12]; first compound 0.1581 µM): 0.369; relative viability ([12]; first compound 0.5 µM): 0.286; relative viability ([13]; first compound 0.005 µM): 0.188; relative viability ([13]; first compound 0.01581 µM): 0.0767; relative viability ([13]; first compound 0.05 µM): 0.0765; relative viability ([13]; first compound 0.1581 µM): 0.0321; relative viability ([13]; first compound 0.5 µM): 0.0304; relative viability ([14]; first compound 0.005 µM): 0.741; relative viability ([14]; first compound 0.01581 µM): 0.546; relative viability ([14]; first compound 0.05 µM): 0.451; relative viability ([14]; first compound 0.1581 µM): 0.191; relative viability ([14]; first compound 0.5 µM): 0.16; relative viability ([15]; first compound 0.005 µM): 0.945; relative viability ([15]; first compound 0.01581 µM): 0.812; relative viability ([15]; first compound 0.05 µM): 0.764; relative viability ([15]; first compound 0.1581 µM): 0.583; relative viability ([15]; first compound 0.5 µM): 0.551; relative viability ([16]; first compound 0.005 µM): 0.645; relative viability ([16]; first compound 0.01581 µM): 0.803; relative viability ([16]; first compound 0.05 µM): 0.708; relative viability ([16]; first compound 0.1581 µM): 0.548; relative viability ([16]; first compound 0.5 µM): 0.252

Question: What does the source list for `CC(=O)O[C@@]12CO[C@@H]1C[C@H](O)[C@@]1(C)C(=O)[C@H](O)C3=C(C)[C@@H](OC(=O)[C@H](O)[C@@H](NC(=O)OC(C)(C)C)c4ccccc4)C[C@@](O)([C@@H](OC(=O)c4ccccc4)[C@H]21)C3(C)C` [Docetaxel] + CC1(C)CCC(c2ccc(Cl)cc2)=C(CN2CCN(c3ccc(C(=O)NS(=O)(=O)c4ccc(N[C@H](CCN5CCOCC5)CSc5ccccc5)c(S(=O)(=O)C(F)(F)F)c4)cc3)CC2)C1 [Navitoclax] (partner 0.5 µM)?
Answer: relative viability ([1]; first compound 0.0002 µM): 1.14; relative viability ([1]; first compound 0.000632 µM): 1.13; relative viability ([1]; first compound 0.002 µM): 0.962; relative viability ([1]; first compound 0.006325 µM): 0.511; relative viability ([1]; first compound 0.02 µM): 0.306; relative viability ([2]; first compound 0.0002 µM): 0.337; relative viability ([2]; first compound 0.000632 µM): 0.432; relative viability ([2]; first compound 0.002 µM): 0.292; relative viability ([2]; first compound 0.006325 µM): 0.228; relative viability ([2]; first compound 0.02 µM): 0.131; relative viability ([17]; first compound 0.0002 µM): 0.314; relative viability ([17]; first compound 0.000632 µM): 0.271; relative viability ([17]; first compound 0.002 µM): 0.155; relative viability ([17]; first compound 0.006325 µM): 0.131; relative viability ([17]; first compound 0.02 µM): 0.105; relative viability ([3]; first compound 0.0002 µM): 1.12; relative viability ([3]; first compound 0.000632 µM): 0.889; relative viability ([3]; first compound 0.002 µM): 0.374; relative viability ([3]; first compound 0.006325 µM): 0.126; relative viability ([3]; first compound 0.02 µM): 0.0732; relative viability ([4]; first compound 0.0002 µM): 1.18; relative viability ([4]; first compound 0.000632 µM): 1.21; relative viability ([4]; first compound 0.002 µM): 1.06; relative viability ([4]; first compound 0.006325 µM): 0.507; relative viability ([4]; first compound 0.02 µM): 0.347; relative viability ([5]; first compound 0.0002 µM): 0.697; relative viability ([5]; first compound 0.000632 µM): 0.819; relative viability ([5]; first compound 0.002 µM): 0.323; relative viability ([5]; first compound 0.02 µM): 0.104; relative viability ([18]; first compound 0.0002 µM): 1.01; relative viability ([18]; first compound 0.000632 µM): 0.995; relative viability ([18]; first compound 0.002 µM): 0.176; relative viability ([18]; first compound 0.006325 µM): 0.168; relative viability ([18]; first compound 0.02 µM): 0.0908; relative viability ([6]; first compound 0.0002 µM): 0.486; relative viability ([6]; first compound 0.000632 µM): 0.275; relative viability ([6]; first compound 0.002 µM): 0.204; relative viability ([6]; first compound 0.006325 µM): 0.23; relative viability ([6]; first compound 0.02 µM): 0.13; relative viability ([7]; first compound 0.0002 µM): 0.907; relative viability ([7]; first compound 0.000632 µM): 0.543; relative viability ([7]; first compound 0.002 µM): 0.313; relative viability ([7]; first compound 0.006325 µM): 0.203; relative viability ([7]; first compound 0.02 µM): 0.119; relative viability ([8]; first compound 0.0002 µM): 0.996; relative viability ([8]; first compound 0.000632 µM): 1; relative viability ([8]; first compound 0.002 µM): 0.895; relative viability ([8]; first compound 0.006325 µM): 0.376; relative viability ([8]; first compound 0.02 µM): 0.168; relative viability ([9]; first compound 0.0002 µM): 0.978; relative viability ([9]; first compound 0.000632 µM): 0.961; relative viability ([9]; first compound 0.002 µM): 0.201; relative viability ([9]; first compound 0.006325 µM): 0.0826; relative viability ([9]; first compound 0.02 µM): 0.0464; relative viability ([19]; first compound 0.0002 µM): 0.899; relative viability ([19]; first compound 0.000632 µM): 0.939; relative viability ([19]; first compound 0.002 µM): 0.373; relative viability ([19]; first compound 0.006325 µM): 0.0756; relative viability ([19]; first compound 0.02 µM): 0.0656; relative viability ([10]; first compound 0.0002 µM): 0.636; relative viability ([10]; first compound 0.000632 µM): 0.372; relative viability ([10]; first compound 0.002 µM): 0.221; relative viability ([10]; first compound 0.006325 µM): 0.161; relative viability ([10]; first compound 0.02 µM): 0.0988; relative viability ([11]; first compound 0.0002 µM): 0.569; relative viability ([11]; first compound 0.000632 µM): 0.49; relative viability ([11]; first compound 0.002 µM): 0.237; relative viability ([11]; first compound 0.006325 µM): 0.213; relative viability ([11]; first compound 0.02 µM): 0.15; relative viability ([12]; first compound 0.0002 µM): 0.844; relative viability ([12]; first compound 0.000632 µM): 0.653; relative viability ([12]; first compound 0.002 µM): 0.408; relative viability ([12]; first compound 0.006325 µM): 0.359; relative viability ([12]; first compound 0.02 µM): 0.258; relative viability ([13]; first compound 0.0002 µM): 1.21; relative viability ([13]; first compound 0.000632 µM): 0.597; relative viability ([13]; first compound 0.002 µM): 0.245; relative viability ([13]; first compound 0.006325 µM): 0.125; relative viability ([13]; first compound 0.02 µM): 0.0526; relative viability ([20]; first compound 0.0002 µM): 1.13; relative viability ([20]; first compound 0.000632 µM): 1.02; relative viability ([20]; first compound 0.002 µM): 0.182; relative viability ([20]; first compound 0.006325 µM): 0.19; relative viability ([20]; first compound 0.02 µM): 0.104; relative viability ([21]; first compound 0.0002 µM): 1.07; relative viability ([21]; first compound 0.000632 µM): 0.86; relative viability ([21]; first compound 0.002 µM): 0.283; relative viability ([21]; first compound 0.006325 µM): 0.16; relative viability ([21]; first compound 0.02 µM): 0.156; relative viability ([15]; first compound 0.0002 µM): 0.399; relative viability ([15]; first compound 0.000632 µM): 0.46; relative viability ([15]; first compound 0.002 µM): 0.181; relative viability ([15]; first compound 0.006325 µM): 0.141; relative viability ([15]; first compound 0.02 µM): 0.102; relative viability ([16]; first compound 0.0002 µM): 0.784; relative viability ([16]; first compound 0.000632 µM): 0.512; relative viability ([16]; first compound 0.002 µM): 0.332; relative viability ([16]; first compound 0.006325 µM): 0.279; relative viability ([16]; first compound 0.02 µM): 0.222
